Patent US8834858B2, “Treatment for dyslipidemia” (Solvotrin Therapeutics Ltd., priority 2011, dated 2014)
Entries after “also recorded” stand apart in the source; their conditions may differ. Where two headings read alike, the source gives them in different places.

Legend:
[1] = system: TG, LDL, HDL; conditions: atorvastatin 10 mg/day, Slo-Niacin to 1500 mg/day, 3-month segments; cited from earlier work
[2] = system: LDL cholesterol, HDL cholesterol, TG; conditions: adult dyslipidemias; cited from earlier work
[3] = pH 7.4
Method: Microsomes from human hepatocytes (post mortem tissue) were diluted with pH 7.4 buffer and the suspension warmed to 37° C. ST0702 was introduced and samples withdrawn at successive time intervals.
Hydrolysis kinetics of isosorbide diaspirinate,” Eur. J. Pharm.

[4] = system: prostaglandin D2 (PGD2); experiment: NHP crossover study: serum PGD2; assay type: in vivo, cynomolgus monkeys
Method: (§1) For TxB2, an additional 0.4 mL whole blood aliquots were placed in siliconised glass tubes to induce a clotting response and the supernatants were analysed for TxB2 using a Luminex ELISA immunoassay. PGD2 was analysed from serum directly using a Luminex ELISA immunoassay.

[5] = system: thromboxane B2 (TxB2); experiment: NHP crossover study: ex-vivo serum TxB2; assay type: in vivo, cynomolgus monkeys
Method: as §1

[6] = Incubation with microsomes from the human intestinal wall; assay type: in vitro ADME
Method: FIG. 7 depicts a progress curve following incubation of ST0702 in the presence of microsomes from the human intestinal wall.
(§2) Hydrolysis kinetics of isosorbide diaspirinate,” Eur. J. Pharm. Sciences 16 2002 297-304.

[7] = Incubation in diluted human intestinal contents; assay type: in vitro ADME; conditions: prolonged period
Source text: as §2

[8] = Incubation with rat intestinal preparation; assay type: in vitro ADME
[9] = Stomach irritation on administration of compound I; assay type: in vivo; conditions: statement in description; test not named
Method: Therefore, stomach irritation is not observed with the administration of isosorbide-2-acetylsalicylate-5-nicotinic acid (I). […] In some embodiments, the present invention provides a composition comprising isosorbide-2-acetylsalicylate-5-nicotinic acid (I) wherein the composition protects the gastrointestinal mucosa from irritation and inflammation.
Ulcerogenic effects of aspirin and aspirin pro-drugs ST0701, ST0702, and ST0703 were determined in rabbits using the following procedure. Healthy female rabbits (n=2 per group) were dosed (by oral gavage) for 3 consecutive days with 30 mg/kg of aspirin or the molar equivalent of ST0702 and the other pro drugs. Four hours post-dose on the final day, the rabbits were euthanized using an overdose of pentobarbitone and their stomachs and small intestine removed, washed with physiological saline, opened along the greater curvature and examined. The area (square millimeters) of both non-haemorrhagic and haemorrhagic lesions developed in the stomach/intestines were measured with a square grid under a dissecting microscope.

[10] = Incubation with mouse intestinal preparation; assay type: in vitro ADME
[11] = Hydrolysis of ST0702 in 50% human plasma; assay type: in vitro ADME; conditions: 50% human plasma diluted with pH 7.4 buffer, 37° C.
Method: FIG. 1 depicts a progress curve for the disappearance of isosorbide-2-aspirinate-5-nicotinate (ST0702) following incubation (in vitro) in 50% human plasma diluted with pH 7.4 buffer at 37° C.
A Waters Spherisorb® (4 μm) C18 3.9×250 mm column was used for the plasma and enzyme study samples. The enzyme and plasma study samples were analysed using a gradient method employing a mobile phase consisting of pH 3.19 phosphate buffer:acetonitrile 90:10 grading to 10:90 over the first ten minutes then back to 65:35 to 12 minutes and grading to 90:10 to 17 minutes at which it was held to 30 minutes. The eluent in both methods was monitored at 230 nm and peak identity and homogeneity confirmed by PDA analysis. Quantitation was performed by comparison of peak areas with external standards run under the same conditions at about the same concentration. The flow rate was 1 ml/min.
For the hydrolysis experiments pooled plasma or serum solutions (4 ml) were prepared by centrifugation of citrated human venous blood and dilution with pH 7.4 phosphate buffer as appropriate. Whole blood was used undiluted. […] 20 μl aliquots of the supernatant were analysed by HPLC. Hydrolysis was monitored until consumption of the parent ester. […] Cholinesterase activity of plasma, serum and whole blood was evaluated using the Ellman approach with butyryl thiocholine as substrate. […]

[12] = Incubation in human gastric juice; assay type: in vitro ADME; conditions: over 60 minutes
Source text: as §2

[13] = system: LDL cholesterol, Apolipoprotein B, TGs; experiment: NHP crossover study: clinical chemistry (LDL-C, ApoB, TG)
Method: (§3) The primary study endpoint is change in plasma LDL cholesterol and Apolipoprotein B at 48 hours. An aliquot of 300 μL of serum transferred to a cryovial and was immediately placed in a freezer set to maintain −70° C. until analyzed for clinical chemistry (LDL cholesterol, Apolipoprotein B, TGs, glucose) using a standard Roche Analyser.

[14] = system: serum glucose; experiment: NHP crossover study: serum glucose
Method: as §3

[15] = Incubation with rabbit intestinal preparation; assay type: in vitro ADME
[16] = Incubation with pig intestinal S9 fraction; assay type: in vitro ADME
Method: FIG. 2 depicts a progress curve for the disappearance of ST0702 following incubation with pig intestinal S9 fraction.
as §2

[17] = cited from earlier work
[18] = cited from earlier work; remark: listed apart in the source
[19] = cited from earlier work; remark: listed apart in the source
[20] = cited from earlier work; remark: listed apart in the source
[21] = target: PGD2 receptor-1 (DP1) (Homo sapiens, UniProt Q13258); conditions: cited from earlier work; for reduction of flushing associated with 1.5 g ER nicotinic acid: single dose study
Sequence of PGD2 receptor-1 (DP1) (Q13258 whole entry): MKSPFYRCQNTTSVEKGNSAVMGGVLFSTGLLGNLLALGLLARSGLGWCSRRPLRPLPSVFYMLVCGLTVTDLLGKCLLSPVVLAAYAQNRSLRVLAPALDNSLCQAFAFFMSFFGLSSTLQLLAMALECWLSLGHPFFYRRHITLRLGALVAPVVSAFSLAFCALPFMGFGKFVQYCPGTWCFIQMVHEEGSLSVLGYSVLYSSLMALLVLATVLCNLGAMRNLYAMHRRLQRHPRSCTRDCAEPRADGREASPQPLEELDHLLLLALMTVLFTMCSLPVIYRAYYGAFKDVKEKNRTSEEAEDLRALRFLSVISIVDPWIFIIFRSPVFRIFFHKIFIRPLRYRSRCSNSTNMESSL

[22] = system: fasting glucose, glycated albumin, TG, total cholesterol; conditions: cited from earlier work; for fall in fasting glucose levels: two weeks
[23] = system: HbA1c; conditions: cited from earlier work
[24] = system: fasting glucose, glycated albumin; conditions: 4.0 g, one month; cited from earlier work
[25] = baseline to 48 hours, 28 mg/kg niacin equivalents daily oral gavage, n=6
[26] = high risk patients (secondary prevention)

CC(C)c1c(C(=O)Nc2ccccc2)c(-c2ccccc2)c(-c2ccc(F)cc2)n1CC[C@@H](O)C[C@@H](O)CC(=O)O [Atorvastatin]
HDL [1]: +6% | LDL [1]: −36% | TG [1]: −26%

O=C1[C@H](CC[C@H](O)c2ccc(F)cc2)[C@@H](c2ccc(O)cc2)N1c1ccc(F)cc1 [Ezetimibe]
HDL cholesterol [2]: +3% | LDL cholesterol [2]: −18 to −24% | TG [2]: No change

CC(=O)Oc1ccccc1C(=O)O[C@H]1CO[C@H]2[C@@H]1OC[C@H]2OC(=O)c1cccnc1 [ST0702, isosorbide-2-aspirinate-5-nicotinate]
hydrolysis pattern in human liver microsomes [3]: more significant direct hydrolysis at position 5 leading to direct nicotinic acid production | reduction in PGD2 AUC levels compared to nicotinic acid ([4]; over 24 hours): 8 fold | PGD2 AUC ([4]; over 24 hours post dosing, equimolar doses): 16.2 ± 6.4 ng·h/mL | serum TxB2 suppression ([5]; at 24 and 48 hours): > 95% | serum TxB2 levels ([5]; from 15 minutes on, within group and vs niacin): significantly reduced | hydrolysis pattern in human intestinal wall microsomes [6]: hydrolysis predominantly at the isosorbide-2-position liberating aspirin and isosorbide-5-nicotinate | stability in human intestinal contents [7]: effectively unchanged | aspirin production from ST0702 [8]: do not produce aspirin | stomach irritation [9]: not observed | aspirin production from ST0702 [10]: do not produce aspirin | disappearance of ST0702 / conversion to hydrolysis products [11]: rapid conversion to a series of hydrolysis products | metabolism in human gastric juice [12]: not metabolized | TG levels at 48 hours (follow up) ([13]; 48 hours): 55 ± 24 mg/dL | TG levels at baseline ([13]; baseline): 59 ± 29 mg/dL | increase in TG levels (non-significant) ([13]; baseline to 48 hours): 4.4% | reduction from baseline in LDL cholesterol [13, 25]: 53% | reduction from baseline in apolipoprotein B [13, 25]: 42% | serum glucose change from baseline ([14]; 1 hour post dose): significant decrease | plasma glucose versus baseline ([14]; 4 hours post dose): remained below baseline levels; also recorded: significant reduction | aspirin production from ST0702 [15]: do not produce aspirin | aspirin production from ST0702 [16]: do not produce aspirin

CC(=O)Oc1ccccc1C(=O)O [aspirin]
effect on flushing symptoms ([17]; 325 mg, 30-60 minutes before IR nicotinic acid): attenuated flushing symptoms | patients with moderate or greater flushing ([17]; first week of treatment, with vs without aspirin): 15% | flushing-specific discontinuation rate ([17]; four week study, 325 mg aspirin before ER nicotinic acid vs no aspirin): 1.8% | reduction of the incidence of flushing ([17]; pre-treatment with aspirin): 18% | mean rate of treatment discontinuation because of nicotinic acid flushing ([17]; with adjunctive aspirin): approximately 6.5% | prevention of non-fatal vascular events [18, 26]: about 30% | prevention of vascular death [18, 26]: approximately 15% | risk reduction ([18]; patients with unstable angina): approximately 50% | reductions in risk of MI ([18]; primary prevention): 25%-33 | avoidance of a major vascular event ([18]; prior MI, stroke, or TIA, approximately 30 months): 36 per 1,000 patients | avoidance of a major vascular event ([18]; unstable angina, treated for 6 months): 50 per 1,000 patients | patients with at least occult bleeding ([19]; daily aspirin use even at low doses): More than 75% | absolute annual increased risk of major bleeding episodes ([19]; low dose aspirin (75-325 mg daily), 22 randomized trials): 1.3 per 1000 patients | Lowest effective daily dose ([20]; Acute MI): 160 mg | Lowest effective daily dose ([20]; Acute ischaemic stroke): 160 mg | Lowest effective daily dose ([20]; Hypertension): 75 mg | Lowest effective daily dose ([20]; Men at high CV risk): 75 mg | Lowest effective daily dose ([20]; Polycythemia): 100 mg | Lowest effective daily dose ([20]; Severe carotid artery stenosis): 75 mg | Lowest effective daily dose ([20]; Stable angina): 75 mg | Lowest effective daily dose ([20]; TIA and ischaemic stroke): 50 mg | Lowest effective daily dose ([20]; Unstable angina): 75 mg

CS(=O)(=O)c1cc(F)cc2c3c(n(Cc4ccc(Cl)cc4)c12)[C@@H](CC(=O)O)CC3 [laropiprant]
reduction of flushing associated with 1.5 g ER nicotinic acid ([21]; 30 mg dose): 47% | reduction of flushing associated with 1.5 g ER nicotinic acid ([21]; 100 mg dose): 67% | reduction of flushing associated with 1.5 g ER nicotinic acid ([21]; 300 mg dose): 74% | overall discontinuation rate ([21]; 4,700 patients, ER nicotinic acid without vs with added laropiprant): 25.3% | rate of moderate/severe flushing ([21]; nicotinic acid without vs with added laropiprant (Kush 2009)): 24%

O=C(Oc1ccccc1C(=O)O)c1ccccc1O [salsalate]
fall in fasting glucose levels ([22]; 3.0 g/daily): 9% | decrease in TG concentrations ([22]; 3.0 g): 11% | fall in fasting glucose levels ([22]; 4.5 g daily): 19% | reduction in glycated albumin ([22]; 4.5 g dose): 19% | decrease in TG concentrations ([22]; 4.5 g): 40% | fall in total cholesterol ([22]; in vivo): 12% | mean change in HbA1c levels compared with placebo ([23]; 3.0 g daily): −0.36% | mean change in HbA1c levels compared with placebo ([23]; 3.5 g daily): −0.34% | mean change in HbA1c levels compared with placebo ([23]; 4.0 g daily): −0.49% | reduction of fasting glucose compared with placebo [24]: 13% | reduction of glycated albumin [24]: 17% | reduction of glycemic response after an oral glucose challenge [24]: 20%
